Measurements as given in paper PMC6383986, “Fragment-Based Covalent Ligand Screening Enables Rapid Discovery of Inhibitors for the RBR E3 Ubiquitin Ligase HOIP” (Journal of the American Chemical Society, 2019).
“Also recorded” adds a separate entry of the source.

Molecular target: T1, 3 × FLAG-tagged HOIP RBR from HEK293T cells (Homo sapiens, UniProt Q96EP0)
T1 construct: expressed in transfected cells; host or cells: HEK293T, transient, modified pcDNA3.1(+)
Test: Immunoprecipitation and on-bead polyubiquitination assay after in-cell labeling
Type: cell-based
Settings: 30 μM, E1, UbcH7, ubiquitin
Procedure: Supplementary Figure S12. A) Uncropped SDS gel and B) and Western Blot (FLAG antibody, 1:1000 dilution) from the immunoprecipitation (IP) of 3×FLAG HOIP RBR from HEK293T cells.
The cells had been incubated with compounds (11a) or (11i) [30 µM], or DMSO for 8 h. C) TIC traces for DMSO control, (11a)- and (11i)-treated HEK293T cell lysate after IP and tryptic digest.
D) Extracted TIC traces for the tryptic peptide […], accounting for possible cysteine labelling (iodoacetamide, (11a) or (11i)) and methionine oxidation.
Immunoprecipitation and Polyubiquitination assay
The protein concentrations of the clarified lysates were normalized with reaction buffer (50 mM Tris-HCl, pH 7.5, 1.5 mM MgCl2, 150 mM NaCl, 1 mM Na3VO4, complete protease inhibitor) to 1.5 mg/mL (final volume 500 µL, and <0.1% IGEPAL-CA630). Magnetic beads containing anti-FLAG M2 antibody (20 µL suspension per vial; Merck) were immobilized using a magnetic stand (GE Healthcare), washed with PBS (2 × 0.5 mL) and reaction buffer (2 × 0.5 mL) and then suspended in the lysate mixtures. Beads without lysate was used as control. The bead […]
A polyubiquitination assay master mix was prepared by mixing E1, UbcH7, ubiquitin, MgCl2, in buffer (50 mM HEPES, 150 mM NaCl, pH 7.5). […] All samples were analyzed by SDS PAGE and Western Blot (Figure 6C and Supplementary Figure S13) as described in sections 4.5 and 4.6. […]

T1 sequence (Q96EP0 697-1072): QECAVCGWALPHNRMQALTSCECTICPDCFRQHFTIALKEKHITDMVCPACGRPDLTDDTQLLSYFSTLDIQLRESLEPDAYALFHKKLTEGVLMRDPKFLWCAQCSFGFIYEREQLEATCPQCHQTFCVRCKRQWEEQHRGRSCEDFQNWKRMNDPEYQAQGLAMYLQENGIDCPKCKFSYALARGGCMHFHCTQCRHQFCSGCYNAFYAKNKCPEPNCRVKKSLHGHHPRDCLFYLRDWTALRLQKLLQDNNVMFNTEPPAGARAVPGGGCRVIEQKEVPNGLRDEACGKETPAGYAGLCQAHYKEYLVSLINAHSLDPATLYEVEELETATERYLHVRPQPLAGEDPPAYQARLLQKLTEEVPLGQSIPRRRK

## COC(=O)/C=C/CNC(=O)c1cc2c([nH]c1=O)CCCC2 [Compound 11a]
  catalytic activity of HOIP (free polyubiquitin chain formation) after in-cell labeling: significant loss of the catalytic activity; also recorded: significant decrease in free polyubiquitin chain formation
